Results: US7070941B2, “Methods and compositions for tagging via azido substrates” (Board of Regents, The University of Texas System, priority 2003, dated 2006)

Legend:
Ras [1] = assay: Ras localisation, cytosol versus membrane association; assay type: cell-based; conditions: for membrane association of Ras: cells treated with lovastatin plus azido-farnesyl substrate
Description: Farnesylated Ras protein is plasma-membrane associated while the unprocessed isoform is mainly located in cytosol.

Ras [2] = assay: mobility-shift assay of Ras in labeled COS-1 cells (SDS-PAGE/Western blot); assay type: cell-based; conditions: 24 h; for effect on lovastatin-induced mobility shift of Ras: COS-1 cells treated with lovastatin
Method: FIG. 3. Detection of F-azide modified Ras and HDJ-2 by mobility-shift assay. Mobility-shift assay of Ras (A) and HDJ-2 (B). COS-1 cells were labeled with the indicated compounds for 24 h, the cell lysate were resolved in SDS-PAGE and probed using anti-Ras and anti-HDJ-2 antibodies, respectively. The letters, “u” and “p”, indicate the unmodified and isoprenylated forms of the protein, respectively.
To determine if the cell will process exogenous azido-farnesyl substrates, metabolic labeling of cells was carried out with synthetic substrates, either FPP azide or F-azide-OH, and mobility-shift assays were performed for Ras and HDJ-2 in order to determine if they are posttranslationally modified. Unprocessed Ras and HDJ-2 move more slowly than their farnesylated isoforms, therefore allowing separation in SDS-PAGE and subsequent detection by Western blotting analysis (James, 1994; Adjei, 2000).
COS-1 cells were grown in Dulbecco's modified Eagle's medium supplemented with 10% fetal bovine serum, 1% penicillin/streptomycin. When cells reached to 70% confluence, lovastatin was added and incubated for suitable amount of time prior to adding FPP azide.
Cells were harvested and lysed in 1 ml of lysis buffer (50 mM HEPES pH 7.6, 250 mM sodium chloride, 1.5 mM magnesium chloride, 1 mM EDTA, 10% (v/v) glycerol, 1% Triton X-100, and protease inhibitor cocktail (Roche Molecular Biochemicals, Indianapolis, Ind.)). The protein lystes were resolved in a 15% SDS-polyacrylamide gel, and transferred to PVDF membrane. The membrane was washed with TBST buffer (0.1% Tween 20, 150 mM NaCl, 25 mM TrisCl, pH 7.5), blocked for 2 h with a solution containing 5% (w/v) dried nonfat milk in TTBS, and immunoblotted for 2 h with an antibody in a blocking buffer (5% BSA in TTBS). After washing 4 times with TBST with changes every 15 min., the membrane was incubated with HRP-conjugated secondary antibody in TBST (1:5000 dilution) with 5% non-fat milk. The membrane was washed again for 4 times in TBST and visualized by enhanced chemiluminescence.

cells = assay: growth rate of cells cultured in DMEM media with the labeling compounds; assay type: cell-based; conditions: DMEM media containing lovastatin, FPP-azide/F-azide-OH, and GG-OH together
Description: Several lines of evidence indicate that F-azide modified proteins maintain the major characteristics of naturally farnesylated proteins. First, F-azide-modified Ras retains GTPase activity. Second, F-azide modification induced Ras' membrane association.

COS cells = assay: global detection of F-azide modified proteins by Western blotting after conjugation to biotinylated phosphine capture reagent; assay type: cell-based; conditions: COS cells dosed with lovastatin and substrate; signals competed away by 0.1 mM D-biotin
Method: FIG. 4. Global detection of F-azide modified proteins by Western blotting analysis. COS cells were labeled with DMSO, or FPP N3 with or without lovastatin, as indicated, for 24 h. The protein lysates from the cells were precipitated by acetone/TCA method, redissolved in a buffer containing 2% SDS and PBS. The resulting solution was conjugated to biotinylated phosphine capture reagents or not, precipitated by acetone/TCA method again. The protein pellet was redissolved in 1×SDS sample buffer, resolved in SDS-PAGE, and detected by Western blotting analysis using streptavidin-conjugated HRP with or without biotin.
To further test whether proteins could be modified by F-azide and subsequently detected, Western blotting analysis was carried out in order to detect F-azide modified proteins. The protein whole-cell lysate from the cells dosed with lovastatin and FPP azide was subjected to conjugation reaction using biotinylated phosphine capture reagent. The resulting lysate was resolved using a SDS-PAGE gel and the biotinylated proteins detected by Western blotting analysis using HRP-conjugated streptavidin.
COS-1 cells were grown in Dulbecco's modified Eagle's medium supplemented with 10% fetal bovine serum, 1% penicillin/streptomycin. When cells reached to 70% confluence, lovastatin was added and incubated for suitable amount of time prior to adding FPP azide. […]

Ras [3] = assay: immunoprecipitation of Ras, conjugation to biotinylated phosphine capture reagent and Western blotting; assay type: cell-based; conditions: cells dosed with FPP-azide versus control cells
Description: The resulting immunocomplexes were resolubilized in 1×SDS sample buffer and then subjected to conjugation reaction using biotinylated phosphine capture reagents, respectively. The free biotinylated capture reagent was removed by a desalting column, resolved in SDS-PAGE, and then detected by Western blotting analysis […]. Protein signals corresponding molecular weights of HDJ-2 and Ras were detected from the cells dosed with FPP-azide but not in the control cells.

FTase = FTase (Homo sapiens, UniProt P49354+P49356); assay: in vitro farnesylation reaction of RC peptide (KKFFCAIS) with FTase, MALDI-TOF readout; assay type: biochemical
Method: FIG. 2. FPP azide is a substrate for in vitro farnesylation reaction. MALDI-TOF mass spectra of RC peptide before (A) and after (B) in vitro farnesylation reaction. One hundred pmol RC-peptide (KKFFCAIS) were mixed with 3000 pmol FPP azide and 35 pmol FTase in 7 μl reaction buffer and incubated at 30° C. for 10 h. The F-azide modified RC-peptide was confirmed by mass spectrometry (m/z, 1191).
To determine whether farnsyltransferase can use FPP azide as a substrate for protein farnesylation, an in-vitro enzymatic reaction was carried out between a CAAX-box containing peptide (RC peptide, KKFFCAIS) and FPP azide.
The molecular masses of the peptide prior to and after enzymatic reaction were determined by MALDI-TOF mass spectrometry. F-azide-modified peptide was detected after enzymatic reaction (m/z, 1191 Da, a mass increase of 246 Da over RC peptide) (FIG. 2).
In a parallel study, an enzymatic reaction was carried out with FPP, the natural substrate for protein farnesylation.

Sequence of FTase (P49356 whole entry, one chain of several): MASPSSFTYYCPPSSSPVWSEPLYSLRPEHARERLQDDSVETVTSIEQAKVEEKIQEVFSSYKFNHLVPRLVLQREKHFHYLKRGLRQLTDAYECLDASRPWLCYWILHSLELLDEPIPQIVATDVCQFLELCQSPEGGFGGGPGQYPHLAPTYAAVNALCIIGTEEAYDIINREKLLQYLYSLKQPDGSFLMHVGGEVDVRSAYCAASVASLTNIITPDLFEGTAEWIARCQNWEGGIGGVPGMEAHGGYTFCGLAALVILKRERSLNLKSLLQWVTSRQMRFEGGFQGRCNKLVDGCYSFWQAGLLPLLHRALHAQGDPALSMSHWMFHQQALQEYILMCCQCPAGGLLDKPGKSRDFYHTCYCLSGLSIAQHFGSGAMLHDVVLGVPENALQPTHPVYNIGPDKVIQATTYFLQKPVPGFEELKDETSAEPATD

Compound	localisation of Ras (Ras [1]; cells treated with lovastatin)	mobility shift of Ras (Ras [2]; COS-1 cells, compound alone)	membrane association of Ras (Ras [1])	growth rate of cells compared with cells cultured without the compounds (cells)	effect on lovastatin-induced mobility shift of Ras (Ras [2])	F-azide modified proteins detected by Western blotting with HRP-conjugated streptavidin (COS cells)	protein signal at the molecular weight of Ras (Ras [3])	substrate for the farnesyltransfer reaction in vitro (FTase; RC peptide, FTase)	reaction rate with RC peptide compared with FPP (FTase; in vitro enzymatic reaction, parallel study with natural substrate FPP)
CC[C@H](C)C(=O)O[C@H]1C[C@@H](C)C=C2C=C[C@H](C)[C@H](CC[C@@H]3C[C@@H](O)CC(=O)O3)[C@H]21 [lovastatin, reference compound]	mainly detected in cytosol	induce mobility shift	–	–	–	–	–	–	–
CC(=CCO)CCC=C(C)CCC=C(C)CN=[N+]=[N-] [F-azide-OH, azido-farnesyl alcohol]	–	–	restore membrane association	comparable growth rate	reversed the mobility shift	detection of multiple proteins	–	–	–
CC(C)=CCC/C(C)=C/CC/C(C)=C/CC/C(C)=C/CO [GG-OH, geranylgeranyl alcohol, reference compound]	–	–	–	–	not affect the mobility shifts	–	–	–	–
azido farnesyl diphosphate [FPP azide]	–	–	restore membrane association	comparable growth rate	reversed the mobility shift	detection of multiple proteins	detected	good substrate	somewhat faster
